Data: PMC6256112, “Cannabinoid Receptor 2 Signalling Bias Elicited by 2,4,6-Trisubstituted 1,3,5-Triazines” (Frontiers in Pharmacology, 2018)
Like-named read-outs stand apart in the source and are kept apart here.

How the values were obtained:
hCB2 [1] = target: T1, hCB2 (Homo sapiens, UniProt P34972); assay: Radioligand competition binding with [3H]-CP 55,940 on hCB2-expressing HEK membranes; details: for hCB2 displacement of [3H]-CP 55,940 in 10 μM screen (in words): 10 μM heterologous competition screen, cut-off 60%; for inhibition at 10 µM: 1 h, 10 μM compound, displacement of 0.5 nM [3H]-CP 55,940, read-out: CB2 binding extent at 10 μM (%) (±SEM); for Reduction in hCB2 binding affinity compared to 15: compared to methylpiperazinyl-15; for Ki: heterologous competition vs [3H]-CP 55,940, read-out: CB2 pKi (±SEM) (converted)
T1 construct: expressed in transfected cells; host or cells: HEK Flp-in

HEK Flp-in wt cells = assay: CAMYEL cAMP assay in HEK Flp-in wt cells (non-hCB2-mediated effects); assay type: cell-based, human; details: for Non-hCB2-mediated effects on cAMP (in words): HEK Flp-in wt
hCB1 = target: T2, hCB1 (Homo sapiens, UniProt P21554); assay: Radioligand competition binding screen with [3H]-CP 55,940 on hCB1-expressing HEK membranes; details: for CB1 binding extent at 10 μM (%) (±SEM): 10 μM compound, displacement of 0.75 nM [3H]-CP 55,940; for CB2 selectivity over CB1 (in words): from CB1 binding at 10 μM versus CB2 affinity
T2 construct: expressed in transfected cells; host or cells: HEK (membranes)

hCB2 [2] = target: T1, hCB2; assay: hCB2 internalisation assay (immunocytochemistry of surface receptor), HEK Flp-in hCB2 cells; assay type: cell-based
hCB2 [3] = target: T1, hCB2; assay: Real-time CAMYEL BRET cAMP assay, forskolin-stimulated HEK Flp-in hCB2 cells; assay type: cell-based; details: for EC50: 10 and 14 approximate (non-hCB2-mediated effects), read-out: cAMP (5 min) pEC50 (±SEM) (converted)
Method: Cellular cAMP levels were measured using a real-time BRET biosensor (CAMYEL) as previously described ([Cawston et al., 2013]). In brief, cells were seeded in 10 cm dishes one day prior to transfection. The medium was then replaced and cells transfected with 5 μg of pcDNA3L-His-CAMYEL (ATCC, Manassas, VA, United States) using linear PEI (MW 25 kDa; Polysciences, Warrington, PA, United States) with a DNA:PEI ratio of 1:6. Approximately 24 h after transfection, cells were trypsinised and re-plated in poly-D-lysine treated white 96-well plates (Corning), at a density of 5–6 × 10^4 cells per well. For experiments involving pertussis toxin (PTX; Sigma-Aldrich) pre-treatment, cells were seeded in half the usual volume of medium, and then ∼5 h later, 2× concentrated PTX or vehicle (50% glycerol, […] Tris–HCl pH 7.5, 10 mM glycine, 500 mM NaCl) were prepared in medium and added to the existing plating medium (giving rise to a final PTX concentration of 100 ng mL^-1). Approximately 24 h after plating (or 16–20 h after applying PTX/vehicle in experiments involving PTX treatment), cells were washed once with Hank’s Balanced Salt Solution (HBSS, Thermo Fisher Scientific, catalogue #14025-134), and then equilibrated for 30 min in HBSS supplemented with 1 mg mL^-1 BSA. Coelenterazine h (final concentration 5 μM; NanoLight Technologies, Pinetop, AZ, United States) was added to each well and incubated for 5 min. Forskolin was added (final concentration 5 μM) and incubated for 6 min (allowing enough time for the induced cAMP increase to plateau), prior to vehicle/drug addition. All drugs and reagents were prepared in HBSS supplemented with 1 mg mL^-1 BSA. SR 144528 was a generous gift from Roche (Basel, Switzerland).
Assays were carried out in technical duplicate. Emissions were detected at 460 nm (Rluc) and 535 nm (YFP) with either a LUMIstar® Omega luminometer (BMG Labtech, Ortenberg, Germany) or CLARIOstar® (BMG Labtech). BRET ratios (535 nm emissions/460 nm emissions, where an increase in ratio corresponds to a decrease in cAMP) were normalised to pre-forskolin reads (i.e., with coelenterazine h present) to remove any variability present prior to addition of forskolin and drug/vehicle. A Lowess curve (GraphPad Prism) was fitted to individual technical replicates within an assay so that cAMP signalling data could be extrapolated from any time point as opposed to only those that were empirically measured (typically every 30–60 s). Data were normalised to matched vehicle (0%) and forskolin (100%) treatments, allowing compilation of data from independent experiments.

hCB2 [4] = target: T1, hCB2; assay: pERK AlphaLISA assay, HEK Flp-in hCB2 cells; assay type: cell-based; details: for EC50: 4 min stimulation, 14 approximate (low potency), read-out: pERK (4 min) pEC50 (±SEM) (converted); for Time of maximal pERK response: time course experiment
hCB2 [5] = target: T1, hCB2; assay: Comparison of efficacy/potency and operational-model bias analysis between hCB2 pathways, reference CP 55,940; assay type: cell-based
[6] = operational model transduction ratio
[7] = 5 min post-drug, 5 μM forskolin
[8] = 10^ΔΔlogR, relative to CP 55,940
[9] = relative to reference ligand CP 55,940

T1 sequence (P34972 whole entry): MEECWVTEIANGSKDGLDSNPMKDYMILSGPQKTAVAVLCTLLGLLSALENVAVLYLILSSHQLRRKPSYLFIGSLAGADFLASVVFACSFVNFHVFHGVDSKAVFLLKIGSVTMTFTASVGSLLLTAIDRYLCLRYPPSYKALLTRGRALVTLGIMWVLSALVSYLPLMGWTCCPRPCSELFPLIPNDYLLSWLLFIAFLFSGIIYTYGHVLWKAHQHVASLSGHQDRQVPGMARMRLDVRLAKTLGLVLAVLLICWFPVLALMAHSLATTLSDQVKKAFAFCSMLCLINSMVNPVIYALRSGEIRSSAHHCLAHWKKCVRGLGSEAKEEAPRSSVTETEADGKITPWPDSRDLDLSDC
T2 sequence (P21554 whole entry): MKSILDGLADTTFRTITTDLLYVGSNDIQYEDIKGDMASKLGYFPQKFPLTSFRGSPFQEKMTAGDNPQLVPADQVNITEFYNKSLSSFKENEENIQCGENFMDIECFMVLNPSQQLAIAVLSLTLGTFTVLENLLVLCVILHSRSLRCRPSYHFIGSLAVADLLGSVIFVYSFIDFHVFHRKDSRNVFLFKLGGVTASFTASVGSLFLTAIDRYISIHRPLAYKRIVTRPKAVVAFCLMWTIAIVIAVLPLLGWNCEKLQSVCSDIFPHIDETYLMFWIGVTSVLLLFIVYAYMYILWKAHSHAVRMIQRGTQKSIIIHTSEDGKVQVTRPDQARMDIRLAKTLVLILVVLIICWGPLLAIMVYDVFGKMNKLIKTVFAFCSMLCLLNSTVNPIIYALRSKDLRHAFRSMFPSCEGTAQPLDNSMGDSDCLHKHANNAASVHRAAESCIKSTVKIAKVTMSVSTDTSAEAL

Compound | hCB2 displacement of [3H]-CP 55,940 in 10 μM screen (in words) (hCB2 [1]) | inhibition at 10 µM (hCB2 [1]) | Reduction in hCB2 binding affinity compared to 15 (hCB2 [1]) | Ki (hCB2 [1]) | CB1 binding extent at 10 μM (%) (±SEM) (hCB1) | CB2 selectivity over CB1 (in words) (hCB1) | Behaviour in cAMP pathway (in words) (hCB2 [3]; 5 μM forskolin) | EC50 (hCB2 [3]; [7]) | Behaviour in pERK pathway (in words) (hCB2 [4]; 4 min) | EC50 (hCB2 [4]) | Time of maximal pERK response (hCB2 [4]) | Non-hCB2-mediated effects on cAMP (in words) (HEK Flp-in wt cells) | also measured
CCOc1nc(NC23CC4CC(CC(C4)C2)C3)nc(N2CCN(CCCCCCNC(=O)OC(C)(C)C)CC2)n1 [Compound 9, tert-Butyl N-(6(4-(4-(Adamantan-1-yl)Amino)-6-Ethoxy-1,3,5-Triazin-2-yl)Piperazin-1-yl)Hexyl) Carbamate] | moderate binders | 51.9% |  |  |  |  |  |  |  |  |  |  | 
CCOc1nc(NC23CC4CC(CC(C4)C2)C3)nc(N2CCN(CCOCCOCCNC(=O)OC(C)(C)C)CC2)n1 [Compound 10, tert-Butyl N-(2-(2-(2-(4-(4-((Adamantan-1-yl)Amino)-6-Ethoxy-1,3,5-Triazin-2-yl)Piperazin-1-yl)Ethoxy) Ethoxy)Ethyl)Carbamate] |  | 91.8% | 2–3 log units | 661 nM | 16.7 (7.8) % | likely also CB2-selective | partial agonists | 105 nM | equivalent efficacies to CP 55,940 | 1070 nM | 4 min |  | Non-hCB2-mediated cAMP effects: fold less potent than cAMP inhibition in hCB2-expressing cells (HEK Flp-in wt cells; HEK Flp-in wt versus HEK Flp-in hCB2): ~23 fold; EC50 (hCB2 [2]; 1 h stimulation): 89.1 nM; logR [log(τ/KA)] (±SEM) Internalisation (hCB2 [2]; [6]): 7.09 (0.10); cAMP (5 min) Emax (±SEM) (hCB2 [3]; 5 min post-drug, 5 μM forskolin, change relative to forskolin alone (100%), vehicle 0%, 10 and 14 approximate): –33.0 (0.9)^Δ %; logR [log(τ/KA)] (±SEM) cAMP (hCB2 [3]; [6]): 6.90 (0.10); Emax (hCB2 [4]; 4 min, response above vehicle, normalised to U0126 (0%) and PMA (100%), for 14 efficacy at 10 μM, read-out: pERK (4 min) Emax (±SEM)): 10.2%; logR [log(τ/KA)] (±SEM) pERK (hCB2 [4]; [6]): 6.06 (0.02); Internalisation – pERK Bias factor (hCB2 [5]; [8]): 2.0; cAMP – internalisation Bias factor (hCB2 [5]; [8]): 1.2; cAMP – pERK Bias factor (hCB2 [5]; [8]): 2.4; Between-pathway signalling bias (in words) (hCB2 [5]; relative to CP 55,940): did not demonstrate any indication of between-pathway bias; Internalisation – pERK ΔΔlogR (±SEM) (hCB2 [5]; [9]): 0.31 (0.13); cAMP – internalisation ΔΔlogR (±SEM) (hCB2 [5]; [9]): 0.07 (0.16); cAMP – pERK ΔΔlogR (±SEM) (hCB2 [5]; [9]): 0.37 (0.10)
CCOc1nc(NC23CC4CC(CC(C4)C2)C3)nc(N2CCN(CCN)CC2)n1 [Compound 11, N-(Adamantan-1-yl)-4-(4-(2-Aminoethyl)Piperazin-1-yl)-6-Ethoxy-1,3,5-Triazin-2-Amine] | moderate binders | 40.1% |  |  |  |  |  |  |  |  |  |  | 
CCOc1nc(NC23CC4CC(CC(C4)C2)C3)nc(N2CCN(CCCCCCN)CC2)n1 [Compound 12, N-(Adamantan-1-yl)-4-(4-(6-Aminohexyl)Piperazin-1-yl)-6-Ethoxy-1,3,5-Triazin-2-Amine] | moderate binders | 43.5% |  |  |  |  |  |  |  |  |  |  | 
CCOc1nc(NC23CC4CC(CC(C4)C2)C3)nc(N2CCN(CCOCCOCCN)CC2)n1 [Compound 13, N-(Adamantan-1-yl)-4-(4-(2-(2-(2-Aminoethoxy) Ethoxy)Ethyl)Piperazin-1-yl)-6-Ethoxy-1,3,5-Triazin-2-Amine] |  | 81.1% | 2–3 log units | 1820 nM | 29.6 (7.6) % | likely also CB2-selective | unconventional transient inverse agonist | 794 nM | weak partial agonists | 537 nM | 4 min | did not exhibit any measurable non-hCB2-mediated effects | Behaviour in internalisation pathway (in words) (hCB2 [2]; 1 h stimulation): neutral antagonist; Internalisation (1 h) pEC50 (±SEM) (hCB2 [2]; 1 h stimulation): Not Measurable; Emax at 10 µM (hCB2 [2]; read-out: Internalisation (1 h) Emax (±SEM), 1 h stimulation, change in surface hCB2 relative to vehicle-treated (100%), for 13 efficacy at 10 μM): 6.2%; Time to maximum cAMP effect after drug addition (hCB2 [3]; 5 μM forskolin): ~4 min; Time to return to cAMP concentration induced by forskolin alone (hCB2 [3]; 5 μM forskolin): 10 to 15 min; PTX sensitivity of cAMP signal (in words) (hCB2 [3]; PTX 100 ng mL-1 pre-treatment 16–20 h): completely PTX-sensitive
SR 144528 [reference compound] |  |  |  |  |  |  |  |  |  |  |  | did not exhibit any measurable non-hCB2-mediated effects | PTX sensitivity of cAMP signal (in words) (hCB2 [3]): PTX-sensitive; Time to maximum cAMP effect after drug addition (hCB2 [3]): approximately 6 min; cAMP (5 min) Emax (±SEM) (hCB2 [3]): 55.4%
